This is an account of results in EP4458352A1, “EICOSAPENTAENOIC ACID ESTER DERIVATIVES FOR THE TREATMENT OF OBESITY” (Technische Universität Dresden, priority 2023, dated 2024).

The test system of assay [1] is adrenal glands of mice fed a HFD. The assay is described as follows: FFA measurement (HPLC-MS) in adrenal glands of HFD mice with or without SC-26196. In kind it is in vivo, WT C57BL/6J mice. The conditions noted are these: HFD with vs without SC-26196; n=8-10 mice per group. The protocol: Six weeks-old male WT C57BL/6J mice were fed for 20 weeks a LFD (D12450B, Research Diets, NJ, USA) or a HFD (D12492, Research Diets, NJ, USA). In some experiments, WT C57BL/6J mice were fed for 8 weeks a HFD and for another 8 weeks a HFD supplemented with SC-26196 (Biorbyt Ltd). SC-26196 was mixed in the HFD at a concentration of 625 mg/kg of diet corresponding to approx. 100 mg/kg of animal weight. In other experiments WT mice were fed for 10 weeks a HFD and for another 10 weeks a HFD supplemented with icosapent ethyl (Vascepa). The content of Vascepa capsules was mixed by Research Diets with the diet at a concentration of 1.125 g/kg icosapent ethyl (corresponding to approx. 180 mg/kg of animal weight). Mice were weighed every week. Glucose and insulin tolerance tests were performed as previously described (20, 21). Three to five mg of hair (2-3 mm close to the skin on the back of the mice) were cut while gently holding the mice without anaesthesia.
Frozen adrenal glands were homogenized in 200 µL PBS-buffer. Lipids were extracted from adrenal lysates or supernatants in chloroform/methanol (Folch's protocol). The extract was evaporated to dryness under stream of nitrogen at 40 °C. The residue was dissolved in 100 µL ethanol. For FFA 50 µL were used. […] The quantification was performed with individual calibration curves using deuterated standards (Cayman Chemical, Ann Arbor, MI).

Assay [2] relates to NCI-H295R cells. The experiment in a line: Cholesterol and cholesteryl ester content (LC-MS/MS) of mitochondrial and lipid droplet fractions of NCI-H295R cells treated with SC-26196. It counts as cell-based, Human. The protocol:
NCI-H295R cells (obtained from ATCC Cat# CRL-2128) were maintained in DMEM/F12 medium supplemented with 2.5 % Nu-Serum type I (Corning), 1 % Insulin Transferrin Selenium (ITS; Gibco), 50 U/mL penicillin and 50 µg/mL streptomycin. They were treated for 18 h with 10 µM SC-26196 or DMSO. […]
Cells were trypsinized and pelleted by centrifugation (500xg, 5 min, 4 °C). The cells were gently resuspended in homogenization buffer (200 mM mannitol, 50 mM sucrose, 10 mM KCI, […] 25 mM HEPES, pH 7.4, 1 µM aprotinin, 10 µM leupeptin, 20 µM PMSF) and homogenized on ice with 20 strokes of tight Dounce homogenizer. The samples were then centrifuged (800xg, 10 min, 4 °C) to pellet the nuclei. […]
Fractions 10-12 (SDHB-positive) and 4-5 (HSL-positive) were considered as mitochondrial and lipid droplet fractions, respectively. Protein concentration was measured in the mitochondrial and lipid droplet pools with the BCA Protein Assay Kit (Thermo Fisher) and fractions were analyzed for cholesterol and CE concentrations.
For quantification of cholesterol and cholesteryl esters, equal volumes of mitochondria fractions (180 µL) were combined, cholesterol-2,3,4-^13C (5 nmol, […]) and SPLASH®Lipidomix® (3 µL, Avanti Polar Lipids Inc) spiked, and samples incubated for 15 min on ice. […]

Consider `N#CC(CCCN1CCN(/N=C/c2cccnc2)CC1)(c1ccccc1)c1ccccc1` [SC-26196], for which, in assay [1], the “free PUFA, including ARA, levels in the adrenal glands” value is “reduced”. In assay [2] (SC-26196 18 h vs DMSO, forskolin (FSK, 1 µM) for 30 min, SDHB positive fractions), the “mitochondrial cholesterol levels upon forskolin stimulation” value is given as “strong increase in mitochondrial cholesterol levels in control- but not SC-26196-treated cells”. Also, the “cholesterol and CE in the lipid droplet (HSL positive) fractions” value in assay [2] (SC-26196-treated cells) is recorded as “accumulated”.
